Broadly, the EC50 is the concentration that produces a half-maximal response. Low readings indicate higher potency in that assay, high ones lower potency in that assay.

This is an account of results in US9896441B2 (Lycera Corporation, priority 2014, dated 2018).

The structures appear in SMILES notation.

One assay deals with T1, RORγ-LBD (Homo sapiens, UniProt P51449).
T1 construct: made in house; host or cells: SF9 cells (baculovirus); used as diluted lysate
T1 sequence (P51449 269-508 limits assumed): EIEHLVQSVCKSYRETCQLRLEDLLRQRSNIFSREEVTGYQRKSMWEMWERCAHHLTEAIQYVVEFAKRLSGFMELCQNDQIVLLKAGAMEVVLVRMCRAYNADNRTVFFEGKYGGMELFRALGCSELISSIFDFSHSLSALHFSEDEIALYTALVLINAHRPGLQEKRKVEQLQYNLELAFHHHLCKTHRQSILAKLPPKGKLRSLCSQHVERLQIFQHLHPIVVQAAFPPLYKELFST
Description: RORγ-Ligand Binding Domain (LBD) TR-FRET Assay. Format: biochemical. The note with it: RORγ-LBD TR-FRET. An outline of the steps: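 TR-FRET read-out using a biotin-tagged SRC1 coactivator LXXLL peptide (200 nM final), with the antagonist ursolic acid present at 2 μM final. Receptor is His-tagged LBD expressed in SF9 cells, ~3 nM final in pH 7.0 Tris/KCl/EDTA/DTT/BSA buffer; compounds in 1% DMSO final.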
(In TR-FRET formats the signal depends on donor and acceptor labels being close together.)

For a further assay, the target named is T2, Gal4-RORγ-LBD (Homo sapiens, UniProt P51449).
T2 construct: expressed in transfected cells
T2 sequence (P51449 269-508 limits assumed): T1 sequence (P51449 269-508 limits assumed)
The assay is described as follows: Gal4-RORγ Luciferase Reporter Assay in HEK-293T Cells. The note with it: HEK-293 cells, luciferase reporter, with ursolic acid. Format: cell-based. An outline of the steps: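 Max Response was taken as the upper plateau of a 4-parameter logistic fit of luciferase signal, normalized to 100 for wells without ursolic acid or compound. Transiently Gal4-RORγ-LBD/Gal4-luc transfected HEK-293 cells carrying […] ursolic acid were incubated with test compounds (0.2% DMSO) overnight at 37 °C and read with One-Glo.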
(In general: In a reporter assay the amount or activity of a reporter protein is the signal.)

In the case of `C/C(=C\c1ccc2c(c1)N(S(=O)(=O)c1cc(Cl)cnc1OCCO)C[C@H](CCC(=O)O)O2)c1c(F)cccc1Cl` [Example 70, (S,E)-3-(4-((5-Chloro-2-(2-hydroxyethoxy)pyridin-3-yl)sulfonyl)-6-(2-(2-chloro-6-fluorophenyl)prop-1-en-1-yl)-3,4-dihydro-2H-benzo[b][1,4]oxazin-2-yl)propanoic acid], the EC50 on RORγ-LBD and at Gal4-RORγ-LBD was < 500 nM each time.

Turning to `C/C(=C\c1ccc2c(c1)N(S(=O)(=O)c1cc(C(F)(F)F)cnc1OCCO)C[C@H](CCC(=O)O)O2)c1c(F)cccc1Cl` [Example 71, (S,E)-3-(6-(2-(2-Chloro-6-fluorophenyl)prop-1-en-1-yl)-4-((2-(2-hydroxyethoxy)-5-(trifluoromethyl)pyridin-3-yl)sulfonyl)-3,4-dihydro-2H-benzo[b][1,4]oxazin-2-yl)propanoic acid], the EC50 at RORγ-LBD and on Gal4-RORγ-LBD was < 500 nM each time.

Take `CCOc1sc(CC)nc1S(=O)(=O)N1C[C@H](CCC(=O)OC)Oc2ccc(/C=C(\C)c3c(F)cccc3Cl)cc21` [Example 72, Methyl (S,E)-3-(6-(2-(2-chloro-6-fluorophenyl)prop-1-en-1-yl)-4-((5-ethoxy-2-ethylthiazol-4-yl)sulfonyl)-3,4-dihydro-2H-benzo[b][1,4]oxazin-2-yl)propanoate]: the EC50 at RORγ-LBD and at Gal4-RORγ-LBD was < 500 nM throughout.

As for `CCOc1sc(CC)nc1S(=O)(=O)N1C[C@H](CCC(=O)O)Oc2ccc(/C=C(\C)c3c(F)cccc3Cl)cc21` [Example 73, (S,E)-3-(6-(2-(2-Chloro-6-fluorophenyl)prop-1-en-1-yl)-4-((5-ethoxy-2-ethylthiazol-4-yl)sulfonyl)-3,4-dihydro-2H-benzo[b][1,4]oxazin-2-yl)propanoic acid], the 50% effective concentration (EC50) on RORγ-LBD and at Gal4-RORγ-LBD was < 500 nM in each case.

On to `COC(=O)CC[C@H]1CN(S(=O)(=O)c2cncc(C(F)(F)F)c2)c2cc(/C=C(\C)c3c(F)cccc3Cl)ccc2O1` [Example 74, Methyl (S,E)-3-(6-(2-(2-chloro-6-fluorophenyl)prop-1-en-1-yl)-4-((5-(trifluoromethyl)pyridin-3-yl)sulfonyl)-3,4-dihydro-2H-benzo[b][1,4]oxazin-2-yl)propanoate], for which the EC50 at RORγ-LBD is < 500 nM; at Gal4-RORγ-LBD, 500 to 5000 nM.

`C/C(=C\c1ccc2c(c1)N(S(=O)(=O)c1cncc(C(F)(F)F)c1)C[C@H](CCC(=O)O)O2)c1c(F)cccc1Cl` [Example 75, (S,E)-3-(6-(2-(2-Chloro-6-fluorophenyl)prop-1-en-1-yl)-4-((5-(trifluoromethyl)pyridin-3-yl)sulfonyl)-3,4-dihydro-2H-benzo[b][1,4]oxazin-2-yl)propanoic acid]: the EC50 is < 500 nM on RORγ-LBD and 500 to 5000 nM at Gal4-RORγ-LBD.

As for `CCOc1ncc(C(F)(F)F)cc1S(=O)(=O)N1C[C@H](CCC(=O)OC)Oc2ccc(/C=C(\C)c3c(Cl)cccc3C(F)(F)F)cc21` [Example 76, Methyl (S,E)-3-(6-(2-(2-chloro-6-(trifluoromethyl)phenyl)prop-1-en-1-yl)-4-((2-ethoxy-5-(trifluoromethyl)pyridin-3-yl)sulfonyl)-3,4-dihydro-2H-benzo[b][1,4]oxazin-2-yl)propanoate], the EC50 was < 500 nM at RORγ-LBD and 500 to 5000 nM at Gal4-RORγ-LBD.

Consider `CCOc1ncc(C(F)(F)F)cc1S(=O)(=O)N1C[C@H](CCC(=O)O)Oc2ccc(/C=C(\C)c3c(Cl)cccc3C(F)(F)F)cc21` [Example 77, (S,E)-3-(6-(2-(2-Chloro-6-(trifluoromethyl)phenyl)prop-1-en-1-yl)-4-((2-ethoxy-5-(trifluoromethyl)pyridin-3-yl)sulfonyl)-3,4-dihydro-2H-benzo[b][1,4]oxazin-2-yl)propanoic acid], for which the values for the EC50 at RORγ-LBD and on Gal4-RORγ-LBD were < 500 nM and 500 to 5000 nM, respectively.

`COC(=O)CC[C@H]1CN(S(=O)(=O)c2cc(C(F)(F)F)cnc2OC[C@@H](C)O)c2cc(/C=C/c3c(F)cccc3Cl)ccc2O1` [Example 78, Methyl 3-((S)-6-((E)-2-chloro-6-fluorostyryl)-4-((2-((R)-2-hydroxypropoxy)-5-(trifluoromethyl)pyridin-3-yl)sulfonyl)-3,4-dihydro-2H-benzo[b][1,4]oxazin-2-yl)propanoate]: the EC50 on RORγ-LBD and at Gal4-RORγ-LBD was 500 to 5000 nM in each case.

As for `C[C@@H](O)COc1ncc(C(F)(F)F)cc1S(=O)(=O)N1C[C@H](CCC(=O)O)Oc2ccc(/C=C/c3c(F)cccc3Cl)cc21` [Example 79, 3-((S)-6-((E)-2-Chloro-6-fluorostyryl)-4-((2-((R)-2-hydroxypropoxy)-5-(trifluoromethyl)pyridin-3-yl)sulfonyl)-3,4-dihydro-2H-benzo[b][1,4]oxazin-2-yl)propanoic acid], the EC50 is < 500 nM at RORγ-LBD and 500 to 5000 nM at Gal4-RORγ-LBD.

As to `CCn1cc(S(=O)(=O)N2C[C@H](CCC(=O)O)Oc3ccc(/C=C(\C)c4c(F)cccc4Cl)cc32)c(OCCO)n1` [Example 80, (S,E)-3-(6-(2-(2-Chloro-6-fluorophenyl)prop-1-en-1-yl)-4-((1-ethyl-3-(2-hydroxyethoxy)-1H-pyrazol-4-yl)sulfonyl)-3,4-dihydro-2H-benzo[b][1,4]oxazin-2-yl)propanoic acid], the EC50 at RORγ-LBD is < 500 nM; at Gal4-RORγ-LBD, 500 to 5000 nM.

As for `COC(=O)CC[C@H]1CN(S(=O)(=O)c2cccc(C(F)F)c2)c2cc(/C=C/c3c(Cl)cccc3C(F)(F)F)ccc2O1` [Example 81, Methyl (S,E)-3-(6-(2-chloro-6-(trifluoromethyl)styryl)-4-((3-(difluoromethyl)phenyl)sulfonyl)-3,4-dihydro-2H-benzo[b][1,4]oxazin-2-yl)propanoate], the EC50 at RORγ-LBD and at Gal4-RORγ-LBD was < 500 nM each time.

Take `O=C(O)CC[C@H]1CN(S(=O)(=O)c2cccc(C(F)F)c2)c2cc(/C=C/c3c(Cl)cccc3C(F)(F)F)ccc2O1` [Example 82, (S,E)-3-(6-(2-Chloro-6-(trifluoromethyl)styryl)-4-((3-(difluoromethyl)phenyl)sulfonyl)-3,4-dihydro-2H-benzo[b][1,4]oxazin-2-yl)propanoic acid]: the EC50 on RORγ-LBD and on Gal4-RORγ-LBD was < 500 nM in each case.

As to `COC(=O)CC[C@H]1CN(S(=O)(=O)c2cccc(C(C)(F)F)c2)c2cc(/C=C/c3c(Cl)cccc3C(F)(F)F)ccc2O1` [Example 83, Methyl (S,E)-3-(6-(2-chloro-6-(trifluoromethyl)styryl)-4-((3-(1,1-difluoroethyl)phenyl)sulfonyl)-3,4-dihydro-2H-benzo[b][1,4]oxazin-2-yl)propanoate], the EC50 is < 500 nM at RORγ-LBD and 500 to 5000 nM on Gal4-RORγ-LBD.

As to `CC(F)(F)c1cccc(S(=O)(=O)N2C[C@H](CCC(=O)O)Oc3ccc(/C=C/c4c(Cl)cccc4C(F)(F)F)cc32)c1` [Example 84, (S,E)-3-(6-(2-Chloro-6-(trifluoromethyl)styryl)-4-((3-(1,1-difluoroethyl)phenyl)sulfonyl)-3,4-dihydro-2H-benzo[b][1,4]oxazin-2-yl)propanoic acid], the EC50 at RORγ-LBD and at Gal4-RORγ-LBD was < 500 nM each time.

For `C/C(=C\c1ccc2c(c1)N(S(=O)(=O)c1cn(C3CC3)nc1OCCO)C[C@H](CCC(=O)O)O2)c1c(F)cccc1Cl` [Example 85, (S,E)-3-(6-(2-(2-Chloro-6-fluorophenyl)prop-1-en-1-yl)-4-((1-cyclopropyl-3-(2-hydroxyethoxy)-1H-pyrazol-4-yl)sulfonyl)-3,4-dihydro-2H-benzo[b][1,4]oxazin-2-yl)propanoic acid], the EC50 on RORγ-LBD and on Gal4-RORγ-LBD was < 500 nM throughout.

In the case of `C/C(=C\c1ccc2c(c1)N(S(=O)(=O)c1ccc(F)c(C(F)(F)F)c1)C[C@H](CCC(=O)O)O2)c1c(F)cccc1Cl` [Example 86A, (S,E)-3-(6-(2-(2-chloro-6-fluorophenyl)prop-1-en-1-yl)-4-((4-fluoro-3-(trifluoromethyl)-phenyl)sulfonyl)-3,4-dihydro-2H-benzo[b][1,4]oxazin-2-yl)-propanoic acid], the EC50 on RORγ-LBD was < 500 nM; on Gal4-RORγ-LBD, 500 to 5000 nM.

Take `COC(=O)CC[C@H]1CN(S(=O)(=O)c2cccc(C(F)(F)F)c2)c2cc(/C=C(\C)c3ccccc3)ccc2O1` [Example 86AB, (S,E)-methyl 3-(6-(2-phenylprop-1-en-1-yl)-4-((3-(trifluoromethyl)-phenyl)sulfonyl)-3,4-dihydro-2H-benzo[b][1,4]oxazin-2-yl)propanoate]: the EC50 at RORγ-LBD is < 500 nM; on Gal4-RORγ-LBD it was 500 to 5000 nM.

As to `C/C(=C\c1ccc2c(c1)N(S(=O)(=O)c1cccc(C(F)(F)F)c1)C[C@H](CCC(=O)O)O2)c1c(C)noc1C` [Example 86AC, (S,E)-3-(6-(2-(3,5-dimethylisoxazol-4-yl)prop-1-en-1-yl)-4-((3-(trifluoromethyl)phenyl)sulfonyl)-3,4-dihydro-2H-benzo[b][1,4]oxazin-2-yl)propanoic acid], the figures for the EC50 on RORγ-LBD and at Gal4-RORγ-LBD were < 500 nM and > 10000 nM, respectively.

For `COC(=O)CC[C@H]1CN(S(=O)(=O)c2cccc(C(F)(F)F)c2)c2cc(/C=C(\C)c3c(C)noc3C)ccc2O1` [Example 86AD, (S,E)-methyl 3-(6-(2-(3,5-dimethylisoxazol-4-yl)prop-1-en-1-yl)-4-((3-(trifluoromethyl)-phenyl)sulfonyl)-3,4-dihydro-2H-benzo[b][1,4]oxazin-2-yl)-propanoate], the results for the EC50 at RORγ-LBD and on Gal4-RORγ-LBD were < 500 nM and 500 to 5000 nM, respectively.
